Measurements from patent publication EP1727814B1, “NUCLEOSIDE ANALOGUES WITH ANTIVIRAL ACTIVITY” (Universita' Degli Studi Di Catania, priority 2004, dated 2005).

Legend:
HSV-1, strain "F" = assay: Plaque reduction assay in Vero cells; assay type: cell-based, herpes simplex type 1 (HSV-1); conditions: Human alphaherpesvirus 1; HSV-1, Vero cells, 72h; read-out: EC50 (concentration capable of reducing the formation of plaques by 50%)
Experimental: (§1) To assay the activity of the compounds also towards herpes virus infections, the model for in vitro transmission of herpes simplex type 1 (HSV-1) and of herpes simplex type 2 (HSV-2) to permissive cells of the Vero cell line and plaque reduction assay were used. Vero cells were transferred and cultivated for 24h at 37°C in six-well plates for the cultures to reach confluence. After removal of the culture medium in the wells, a suspension was added containing 100 plaque forming units (PFU) of HSV-1, strain "F", or HSV-2, strain "G" in 100 µl of medium. After one hour of incubation the appropriate quantities of compounds were added diluted in culture medium with the addition of serum 2% and methylcellulose 0.8% to obtain final concentrations of the compounds ranging from 1 µM to 400 µM. The cultures were then incubated for 72h, the medium was removed from the wells and stained with crystal violet 0.8%. After removing the wash liquid, the plates were left to dry and the number of plaques was determined. Acyclovir was used as the positive reference control. A double assay was performed and the values of EC50 (concentration capable of reducing the formation of plaques by 50%) were calculated by extrapolating the mean number of plaques from the plot towards the corresponding concentrations of the compounds.

HSV-2, strain "G" = assay: Plaque reduction assay in Vero cells; assay type: cell-based, herpes simplex type 2 (HSV-2); conditions: Human alphaherpesvirus 2; HSV-2, Vero cells, 72h; read-out: EC50 (concentration capable of reducing the formation of plaques by 50%)
Experimental: as §1

HIV-1 = assay: Anti-HIV activity in CEM cells, p24 ELISA in supernatant
Experimental: The strain HIV-1 mixed with HIV-IIIB produced in chronically infected cells of lymphoid origin H-9 and therefore capable of growing the virus stably in a culture, was used to assay the anti-HIV activity. Viral inoculation was prepared by low speed centrifugation (3000 rpm) of the supernatant from the line producing the virus and by subsequent ultracentrifugation (40,000 rpm). The concentrated virus was titrated in TCID 50%/ml (units infecting 50% of the cultures). Cells from the lymphoid T-cell line, CEM, were used as cells to infect. The target cells were placed in contact with various quantities of TCID 50% of titrated virus, in an interval ranging from a MOl (multiplicity of infection) of 0.0001 and 0.1 TCID 50%/cell.
The cultures were kept for 7 days at 37°C in the presence of fetal bovine serum 2%. After 2-4 days of culture the medium was removed and replaced with fresh medium to which the compounds in question were again added.
After seven days of setting up the culture, the infection was evaluated using the ELISA method, measuring the production of HIV-1 p24 protein in the supernatant of infected cultures, treated and untreated.

HTLV-1 = assay: Inhibition of HTLV-1 transmission to lymphomonocytes by co-cultivation (DNA-PCR, RT-PCR, Tax Western blot); assay type: cell-based, HTLV-1 (human T lymphotropic retrovirus type 1); conditions: lowest concentrations (5µM and 1 µM)
Experimental: (§2) To assay the capacity to inhibit transmission, lymphomonocytes of adult peripheral blood were separated by density gradient centrifugation and then infected with HTLV-1 by co-cultivation with a chronically infected line that produces viruses, following irradiation of the donor cells (Miyoshi et al. Nature 1981, 296: 770-772).
(§3) The assayed nucleoside analogues (compounds A, B and C) were added at different concentrations at the moment of infection and the treatment was repeated at 3, 7 and 10 days from the first exposure.
The infection was monitored by verifying that the cells treated had become infected, compared to untreated controls, four weeks after infection. The infection was determined by monitoring the presence of proviral DNA and the viral RNA expression, by DNA-PCR and RT-PCR assay respectively. With these techniques it is possible to amplify and highlight the viral genome of HTLV-1 integrated into the host cell, that is virus-specific RNA-messengers, by the use of specific oligonucleotides for viral regions.
For further evaluation of the infection the viral protein expression of HTLV-1 Tax was also highlighted using Western blot analysis with specific monoclonal antibodies.

[1] = test system: lymphomonocytes of adult peripheral blood; assay: Proliferative response of infected and uninfected lymphomonocyte cultures; assay type: cell-based; conditions: lowest concentrations (5µM and 1 µM)
Experimental: as §2, §3
Moreover, the infected and uninfected cultures, treated or untreated with the compounds in question, were assayed to determine the proliferative response during infection, in order to verify, in addition to the antiviral effect also any antiproliferative effect with regard to the infected cultures.

RT of avian retrovirus = assay: Inhibition in vitro of retroviral reverse transcriptase (cDNA synthesis, 32P incorporation, gel electrophoresis); assay type: biochemical; conditions: after preincubation with PBMC lysates
Text: In addition to the tests on cells susceptible to infection by human retroviruses, an assay was set up to highlight the capacity of the compounds A, B and C to inhibit in vitro the activity of a retroviral reverse transcriptase (RT). In short, the assay is based on the principle that starting from an RNA template, it is possible to evaluate the effect of inhibition of the capacity of the RT to synthesise cDNA, by identifying the cDNA fragment of neosynthesis, following gel electrophoretic run, thanks to incorporation of a nucleotide precursor labelled with phosphorus 32 (P32). […] As in order to be utilisable by the RT, the nucleoside analogues must be transformed into their triphosphate form, the compounds in question were placed in contact with cell protein extracts containing kinases capable of inducing phosphorylations. For this purpose protein extracts were used, obtained by lysis from a million PBMC previously stimulated in 48h of culture with PHA. The nucleoside compounds were incubated in ice for one hour with the lysates. After incubation the samples were taken to 95°C in order to inactivate the cellular enzymes present in the lysates. […]

[2] = Human immunodeficiency virus 1, CCRF-CEM, 168 h, read-out: inhibition of the production of p24 in the supernatant of infected cultures

## CCOP(=O)(CC1CC(n2ccc(N)nc2=O)ON1C)OCC (stereo not shown) [Compound A]
HSV-1, strain "F"
  EC50: 48 µM
HSV-2, strain "G"
  EC50: 72 µM
HIV-1; [2]
  inhibition at 0.04 µM: 45%
  inhibition at 0.4 µM: 70%

## Nc1nc2c(ncn2COCCO)c(=O)[nH]1 [acyclovir, Acyclovir, reference compound]
HSV-1, strain "F"
  EC50: 14 µM
HSV-2, strain "G"
  EC50: 32 µM

## CCOP(=O)(CC1CC(n2cc(F)c(=O)[nH]c2=O)ON1C)OCC (stereo not shown) [Compound C]
HTLV-1
  protection from the infection: total protection
[1]
  antiproliferative action: poor or no antiproliferative action
RT of avian retrovirus; 0.1, 1 and 20 µM
  inhibition of RT activity: capable of inhibiting RT activity
HSV-1, strain "F"
  EC50: 34 µM
HSV-2, strain "G"
  EC50: 56 µM
HIV-1; 0.004 µM, CEM cells, 7 days
  inhibition of the production of p24 in the supernatant of infected cultures: did not cause inhibition
HIV-1; [2]
  inhibition at 0.04 µM: 60%
  inhibition at 0.4 µM: 75%

## Cc1cn([C@H]2C[C@H](N=[N+]=[N-])[C@@H](CO)O2)c(=O)[nH]c1=O [AZT, zidovudine, reference compound]
RT of avian retrovirus; 0.1 and 10 µM
  inhibition of RT activity: capable of inhibiting RT activity
HIV-1; [2]
  inhibition at 0.004 µM: 60%
  inhibition at 0.04 µM: 80%
  inhibition at 0.4 µM: 98%

## CCOP(=O)(CC1CC(n2cc(C)c(=O)[nH]c2=O)ON1C)OCC (stereo not shown) [Compound B]
HSV-1, strain "F"
  EC50: 62 µM
HSV-2, strain "G"
  EC50: 78 µM
HIV-1; [2]
  inhibition at 0.04 µM: 50%
  inhibition at 0.4 µM: 70%
